Experimental data published in ChEMBL document CHEMBL1128944, “Potent cyclic urea HIV protease inhibitors with benzofused heterocycles as P2/P2 groups” (Bioorg Med Chem Lett, 1996).

Columns and labels:
[1] = Plasma Clearance was evaluated in rats, iv; assay type: ADME, organism-based; conditions: rat
[2] = Clearance value was evaluated in dog plasma; assay type: ADME, organism-based, Canis lupus familiaris
[3] = Half life period was evaluated in dog; assay type: ADME, organism-based, Canis lupus familiaris; conditions: in vivo
[4] = Half life period was evaluated in rats; assay type: ADME, organism-based; conditions: rat, in vivo
[5] = Maximum concentration was evaluated in dog plasma; assay type: ADME, organism-based, Canis lupus familiaris
[6] = molecular target: Human immunodeficiency virus type 1 protease (Human immunodeficiency virus 1) (UniProt Q72874); assay: Inhibitory activity against HIV-1 RF infected MT-2 cells; assay type: functional, cell-based; conditions: MT2
[7] = molecular target: Human immunodeficiency virus type 1 protease (Human immunodeficiency virus 1, UniProt Q72874); assay: Inhibitory activity was evaluated against HIV protease
[8] = Bioavailability was evaluated in dog; assay type: ADME, organism-based, Canis lupus familiaris; conditions: in vivo

In the case of `O=C1N(Cc2ccc3[nH]ncc3c2)[C@H](Cc2ccccc2)[C@H](O)[C@@H](O)[C@@H](Cc2ccccc2)N1Cc1ccc2[nH]ncc2c1`, the clearance [1] is reported as 3.33 mL/min/kg, the clearance [2] is reported as 18.3 mL/min/kg and the half-life [3] is reported as 2 h. It also gave a half-life [4] of 2.7 h, a Cmax [5] of 600 ng/mL and an IC90 [6] of 8 nM. For the same compound, the Ki [7] was 0.018 nM and the bioavailability [8] was 13%.
Compound `O=C1N(Cc2ccc3c[nH]nc3c2)[C@H](Cc2ccccc2)[C@H](O)[C@@H](O)[C@@H](Cc2ccccc2)N1Cc1ccc2c[nH]nc2c1` has an IC90 [6] of 49 nM and a Ki [7] of 0.018 nM.
For `O=C1N(Cc2ccc3oc(O)nc3c2)[C@H](Cc2ccccc2)[C@H](O)[C@@H](O)[C@@H](Cc2ccccc2)N1Cc1ccc2oc(O)nc2c1`, the IC90 [6] was 579 nM and the Ki [7] was 3.9 nM.
Work on `Nc1nc2cc(CN3C(=O)N(Cc4ccc5[nH]c(N)nc5c4)[C@H](Cc4ccccc4)[C@H](O)[C@@H](O)[C@H]3Cc3ccccc3)ccc2[nH]1` yielded an IC90 [6] of 8100 nM and a Ki [7] of 5.8 nM.
`O=C1N(Cc2ccc3nc(S)oc3c2)[C@H](Cc2ccccc2)[C@H](O)[C@@H](O)[C@@H](Cc2ccccc2)N1Cc1ccc2nc(S)oc2c1` gave an IC90 [6] of 5100 nM and a Ki [7] of 4.8 nM.
Compound `Nc1nc2cc(CN3C(=O)N(Cc4ccc5sc(N)nc5c4)[C@H](Cc4ccccc4)[C@H](O)[C@@H](O)[C@H]3Cc3ccccc3)ccc2s1` has an IC90 [6] of 950 nM and a Ki [7] of 190 nM.
`O=C1N(Cc2ccc3c(c2)NS(=O)(=O)N3)[C@H](Cc2ccccc2)[C@H](O)[C@@H](O)[C@@H](Cc2ccccc2)N1Cc1ccc2c(c1)NS(=O)(=O)N2` showed an IC90 [6] of 32000 nM and a Ki [7] of 0.19 nM.
Work on `O=C1N(Cc2ccc3nc(O)sc3c2)[C@H](Cc2ccccc2)[C@H](O)[C@@H](O)[C@@H](Cc2ccccc2)N1Cc1ccc2nc(O)sc2c1` yielded an IC90 [6] of 109 nM and a Ki [7] of 0.91 nM.
In the case of `O=C1N(Cc2ccc3[nH]c(O)nc3c2)[C@H](Cc2ccccc2)[C@H](O)[C@@H](O)[C@@H](Cc2ccccc2)N1Cc1ccc2[nH]c(O)nc2c1`, the IC90 [6] is reported as > 65000 nM and the Ki [7] is reported as < 0.01 nM.
With `Nc1nc2ccc(CN3C(=O)N(Cc4ccc5nc(N)sc5c4)[C@H](Cc4ccccc4)[C@H](O)[C@@H](O)[C@H]3Cc3ccccc3)cc2s1` the IC90 [6] was 270 nM and the Ki [7] was 5.7 nM.
Compound `O=C1N(Cc2ccc3[nH]cnc3c2)[C@H](Cc2ccccc2)[C@H](O)[C@@H](O)[C@@H](Cc2ccccc2)N1Cc1ccc2[nH]cnc2c1` has an IC90 [6] of 19000 nM and a Ki [7] of 11 nM.
`O=C1CNc2cc(CN3C(=O)N(Cc4ccc5c(c4)NCC(=O)N5)[C@H](Cc4ccccc4)[C@H](O)[C@@H](O)[C@H]3Cc3ccccc3)ccc2N1` showed an IC90 [6] of 7700 nM and a Ki [7] of 6.1 nM.
Compound `O=C1N(Cc2ccc3sc(O)nc3c2)[C@H](Cc2ccccc2)[C@H](O)[C@@H](O)[C@@H](Cc2ccccc2)N1Cc1ccc2sc(O)nc2c1` has a Ki [7] of 130 nM.
With `O=C1N(Cc2ccc3nn[nH]c3c2)[C@H](Cc2ccccc2)[C@H](O)[C@@H](O)[C@@H](Cc2ccccc2)N1Cc1ccc2nn[nH]c2c1` the Ki [7] was 0.09 nM.
With `O=C1Nc2ccc(CN3C(=O)N(Cc4ccc5c(c4)C(=O)C(=O)N5)[C@H](Cc4ccccc4)[C@H](O)[C@@H](O)[C@H]3Cc3ccccc3)cc2C1=O` the IC90 [6] was 8500 nM and the Ki [7] was 0.81 nM.
`O=C1N(Cc2ccc3nc(O)cnc3c2)[C@H](Cc2ccccc2)[C@H](O)[C@@H](O)[C@@H](Cc2ccccc2)N1Cc1ccc2nc(O)cnc2c1` gave an IC90 [6] of 7800 nM and a Ki [7] of 490 nM.
`O=C1N(Cc2ccc3[nH]ccc3c2)[C@H](Cc2ccccc2)[C@H](O)[C@@H](O)[C@@H](Cc2ccccc2)N1Cc1ccc2[nH]ccc2c1` gave an IC90 [6] of 190 nM and a Ki [7] of 1.3 nM.
Compound `O=C1N(Cc2ccc3scnc3c2)[C@H](Cc2ccccc2)[C@H](O)[C@@H](O)[C@@H](Cc2ccccc2)N1Cc1ccc2scnc2c1` has an IC90 [6] of 3200 nM and a Ki [7] of 28 nM.
`Nc1nc2ccc(CN3C(=O)N(Cc4ccc5nc(N)oc5c4)[C@H](Cc4ccccc4)[C@H](O)[C@@H](O)[C@H]3Cc3ccccc3)cc2o1` gave an IC90 [6] of 84 nM and a Ki [7] of 0.2 nM.
In the case of `O=C1N(Cc2ccc(CO)cc2)[C@H](Cc2ccccc2)[C@H](O)[C@@H](O)[C@@H](Cc2ccccc2)N1Cc1ccc(CO)cc1` [DMP-323], the clearance [1] is reported as 118 mL/min/kg and the IC90 [6] is reported as 100 nM.
With `O=C1Cc2cc(CN3C(=O)N(Cc4ccc5c(c4)CC(=O)N5)[C@H](Cc4ccccc4)[C@H](O)[C@@H](O)[C@H]3Cc3ccccc3)ccc2N1` the IC90 [6] was 370 nM and the Ki [7] was 0.14 nM.
In the case of `O=C1N(Cc2ccc3ncoc3c2)[C@H](Cc2ccccc2)[C@H](O)[C@@H](O)[C@@H](Cc2ccccc2)N1Cc1ccc2ncoc2c1`, the IC90 [6] is reported as 440 nM and the Ki [7] is reported as 3.4 nM.
Compound `O=C1N(Cc2ccc3[nH]nnc3c2)[C@H](Cc2ccccc2)[C@H](O)[C@@H](O)[C@@H](Cc2ccccc2)N1Cc1ccc2[nH]nnc2c1` has an IC90 [6] of 530 nM.
Work on `O=C1N(Cc2ccc3nc(O)oc3c2)[C@H](Cc2ccccc2)[C@H](O)[C@@H](O)[C@@H](Cc2ccccc2)N1Cc1ccc2nc(O)oc2c1` yielded an IC90 [6] of 40 nM and a Ki [7] of 0.18 nM.
